Measured values from patent publication US20250268894A1, “MACROCYCLE COMPOUNDS FOR THE TREATMENT OF CANCER” (Hoffmann-La Roche Inc., priority 2022, published 2025).
pIC50: −log10 of the molar value.

Columns and labels:
AGS cells (KRAS G12D) = assay: Cell viability assay (Cell Counting Kit-8), KRAS G12D; type: cell-based; conditions: Homo sapiens, 72 hrs
Method: (§1) The purpose of this cellular assay was to determine the effects of test compounds on the proliferation of human cancer cell lines NCI-H358 (ATCC-CRL5807) cells, AGS (ATCC-CRL-1739) cells, SW620 (ATCC-CCL-227) over a 3-day treatment period by quantifying the amount of NADPH present at endpoint using Cell Counting Kit-8.
(§2) Cells were seeded at 5,000 cells/well (NCI-H358), 2,000 cells/well (AGS)2,000 cells/well (SW620) in 96-well assay plates (Corning-3699) and incubated overnight. On the day of the assay, diluted compounds were then added in a final concentration of 0.5% DMSO. After 72 hrs incubation, a tenth of the volume of cell counting kit 8 (Dnjindo-CK04) was added into each well. Read the signal (OD450 minus OD650) using EnVision after 2 hrs incubation. IC50 was determined by fitting a 4-parameter sigmoidal concentration response model.

KRAS G12V-BRAF complex = KRAS G12V-BRAF complex (Homo sapiens (Human), UniProt P01116+P62937, G12V); assay: KRAS-BRAF with CYPA (500 nM) interaction assay (TR-FRET), G12V; type: biochemical
Chain of KRAS G12V-BRAF complex (P01116-2 other isoform, or with tags, fused parts or gaps G12V): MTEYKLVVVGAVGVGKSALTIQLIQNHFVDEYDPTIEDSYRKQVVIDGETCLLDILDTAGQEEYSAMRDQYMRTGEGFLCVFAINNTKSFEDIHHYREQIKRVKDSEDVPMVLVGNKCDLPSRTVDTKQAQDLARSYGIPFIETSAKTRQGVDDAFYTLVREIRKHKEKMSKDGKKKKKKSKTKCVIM
Chain of KRAS G12V-BRAF complex (P62937 whole entry): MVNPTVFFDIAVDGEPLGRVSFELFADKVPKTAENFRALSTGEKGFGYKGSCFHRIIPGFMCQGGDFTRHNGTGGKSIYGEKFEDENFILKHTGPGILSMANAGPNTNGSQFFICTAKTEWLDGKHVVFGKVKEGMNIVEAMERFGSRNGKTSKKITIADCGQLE
Method: (§3) Kras-BRAF with CYPA (500 nM) Interaction Assay In this example, TR-FRET was also used to measure the compound or compound-CYPA dependent disruption of the KRAS G12C-BRAF complex. This protocol was also used to measure disruption of KRAS G12D or KRAS G12V binding to BRAF by a compound of the invention, respectively. […] Compound was present in plate wells as a 16-point 3-fold dilution series starting at a final concentration of 10 μM and incubated for 3 hours. […] TR-FRET signal was read on a […] microplate reader (Ex320 nm, Em 665/615 nm). Compounds that facilitate disruption of the KRAS-BRAF complex were identified as those eliciting a decrease in the TR-FRET ratio relative to DMSO control wells.

[1] = system: phosphorylation of ERK, KRAS G12V in SW620 cells; assay: pERK inhibition assay, KRAS G12V in SW620; type: cell-based, human; conditions: Homo sapiens, SW-620, SW620, 4 hours
Method: (§4) This assay is to measure the ability of test compounds in inhibiting the phosphorylation of ERK, the downstream signaling of KRAS G12C in NCI-H358 cells, KRAS G12D in AGS cells, and KRAS G12V in SW620. NCI-H358 (ATCC-CRL5807) cells, AGS (ATCC-CRL-1739) cells, SW620 (ATCC-CCL-227) cells were all grown and maintained using RPMI-1640 medium (Thermo Fisher Scientific) with 10% fetal bovine serum and 1% penicillin/streptomycin. On the day prior to compound addition, cells were plated in tissue culture-treated 96 well plates (Corning-3699) at a density of 30,000 cell/well, 20,000 cell/well, 30,000 cell/well for NCI-H358, AGS and SW620 respectively, and allowed for attachment overnight. Diluted compounds were then added in a final concentration of 0.5% DMSO. After 4 hours of incubation, the medium was removed, 100 μL of 4% formaldehyde was added, and the assay plates were incubated at room temperature for 20 minutes. The plates were then washed once with phosphate buffered saline (PBS), and permeabilized with 100 μL of chilled methanol for 10 minutes. Non-specific antibody binding to the plates was blocked using 50 μL 1X BSA blocking buffer (Thermo-37520, 10-fold dilution by Phosphate-Buffered Saline Tween (PBST) for at least 1 hour at room temperature.
(§5) The amount of phosphor-ERK was determined using an antibody specific for phosphorylated form of ERK. Primary antibody (PERK, CST-4370, Cell Signaling Technology) was diluted 1:300 in blocking buffer, with 50 μL aliquoted to each well, and incubated overnight at 4° C. Cells was washed five times for 5 minutes with PBST. Secondary antibody (HRP-linked anti-rabbit IgG, CST-7074, Cell Signaling Technology) was diluted 1:1000 in blocking buffer, and 50 μL was added to each well and incubated 1-2 hrs at room temperature. Cells was washed […] for 5 minutes with PBST, 100 μL TMB ELISA substrate (abcam-ab171523) were added and gently shake for 20 minutes. 50 μL stop solution (abcam-ab171529) were added, and then read the signal (OD450) by EnVision.
(§6) IC50 was determined by fitting a 4-parameter sigmoidal concentration response model.

[2] = system: NCI-H358 cells (KRAS G12C); assay: Cell viability assay (Cell Counting Kit-8), KRAS G12C; type: cell-based; conditions: Homo sapiens, NCI-H358, 72 hrs
Method: as §1, §2

KRAS G12C-BRAF complex = KRAS G12C-BRAF complex (Homo sapiens (Human), UniProt P01116+P62937, G12C); assay: KRAS-BRAF with CYPA (500 nM) interaction assay (TR-FRET), G12C; type: biochemical
Chain of KRAS G12C-BRAF complex (P01116-2 other isoform, or with tags, fused parts or gaps G12C): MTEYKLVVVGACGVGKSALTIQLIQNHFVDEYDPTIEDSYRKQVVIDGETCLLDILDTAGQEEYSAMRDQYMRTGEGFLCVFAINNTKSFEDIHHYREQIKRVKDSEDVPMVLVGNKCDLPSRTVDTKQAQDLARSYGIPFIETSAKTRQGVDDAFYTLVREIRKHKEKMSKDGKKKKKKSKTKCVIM
Chain of KRAS G12C-BRAF complex (P62937 whole entry): as the sequence (P62937 whole entry) above
Method: as §3

[3] = system: phosphorylation of ERK, KRAS G12D in AGS cells; assay: pERK inhibition assay, KRAS G12D in AGS cells; type: cell-based, human; conditions: Homo sapiens, 4 hours
Method: as §4, §5, §6

[4] = system: phosphorylation of ERK, KRAS G12C in NCI-H358 cells; assay: pERK inhibition assay, KRAS G12C in NCI-H358 cells; type: cell-based, human; conditions: Homo sapiens, NCI-H358, 4 hours
Method: as §4, §5, §6

SW620 cells (KRAS G12V) = assay: Cell viability assay (Cell Counting Kit-8), KRAS G12V; type: cell-based; conditions: Homo sapiens, SW-620, SW620, 72 hrs
Method: as §1, §2

KRAS G12D-BRAF complex = KRAS G12D-BRAF complex (Homo sapiens (Human), UniProt P01116+P62937, G12D); assay: KRAS-BRAF with CYPA (500 nM) interaction assay (TR-FRET), G12D; type: biochemical
Chain of KRAS G12D-BRAF complex (P01116-2 other isoform, or with tags, fused parts or gaps G12D): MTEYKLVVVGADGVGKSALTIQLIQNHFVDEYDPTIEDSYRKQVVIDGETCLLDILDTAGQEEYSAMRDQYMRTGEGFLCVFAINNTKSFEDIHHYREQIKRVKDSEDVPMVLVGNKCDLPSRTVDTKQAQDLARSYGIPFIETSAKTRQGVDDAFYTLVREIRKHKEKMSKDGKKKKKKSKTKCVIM
Chain of KRAS G12D-BRAF complex (P62937 whole entry): as the sequence (P62937 whole entry) above
Method: as §3

**Q.** Which results are given for `CO[C@@H](C)c1ncc(N2CCN(CC(F)(F)F)CC2)cc1-c1c2c3cc(c(F)cc3n1CC(F)(F)F)-c1csc(n1)C[C@H](NC(=O)[C@H](C(C)C)N(C)C(=O)N1CC(N(C)C)C1)C(=O)N1CCC[C@H](N1)C(=O)OCC(C)(C)C2` (atropisomer, axis not shown; (M)) [Example 12, 3-(dimethylamino)-N-[(1S)-1-[[(7S,13S)-24-fluoro-(20M)-20-[2-[(1S)-1-methoxyethyl]-5-[4-(2,2,2-trifluoroethyl)piperazin-1-yl]-3-pyridyl]-17,17-dimethyl-8,14-dioxo-21-(2,2,2-trifluoroethyl)-15-oxa-4-thia-9,21,27,28-tetrazapentacyclo[17.5.2.1^2,5.1^9,13.0^22,26]octacosa-1 (25),2,5 (28),19,22 (26),23-hexaen-7-yl]carbamoyl]-2-methyl-propyl]-N-methyl-azetidine-1-carboxamide]?
**A.** pIC50 (AGS cells (KRAS G12D)): 7.42; pIC50 (KRAS G12V-BRAF complex): 7.07; pIC50 [1]: 8.40; pIC50 [2]: 8.05; pIC50 (KRAS G12C-BRAF complex): 7.54; pIC50 [3]: 7.82; pIC50 [4]: 8.22; pIC50 (SW620 cells (KRAS G12V)): 8.15; pIC50 (KRAS G12D-BRAF complex): 6.85

**Q.** How did the pIC50 (AGS cells (KRAS G12D)) turn out when `CCn1c(-c2cc(N3CCN(C)CC3)cnc2[C@H](C)OC)c2c3cc(c(F)cc31)-c1csc(n1)C[C@H](NC(=O)[C@H](C(C)C)N(C)C(=O)N1CCOCC1)C(=O)N1CCC[C@H](N1)C(=O)OCC(C)(C)C2` (atropisomer, axis not shown; (M)) [Example 10, N-[(1S)-1-[[(7S,13S)-21-ethyl-24-fluoro-(20M)-20-[2-[(1S)-1-methoxyethyl]-5-(4-methylpiperazin-1-yl)-3-pyridyl]-17,17-dimethyl-8,14-dioxo-15-oxa-4-thia-9,21,27,28-tetrazapentacyclo[17.5.2.1^2,5.1^9,13.0^22,26]octacosa-1 (25),2,5 (28),19,22 (26),23-hexaen-7-yl]carbamoyl]-2-methyl-propyl]-N-methyl-morpholine-4-carboxamide] was run?
**A.** Its pIC50 is 7.40.

**Q.** What about the pIC50 (KRAS G12V-BRAF complex) of the same compound?
**A.** Its pIC50 is 6.83.

**Q.** What about the pIC50 [1] of the same compound?
**A.** Its pIC50 is 8.22.

**Q.** And the pIC50 [2]?
**A.** Its pIC50 is 8.22.

**Q.** And the pIC50 (KRAS G12C-BRAF complex)?
**A.** Its pIC50 is 7.21.

**Q.** And the pIC50 [3]?
**A.** The pIC50 was 8.10.

**Q.** What about the pIC50 [4] of the same compound?
**A.** Its pIC50 is 7.85.

**Q.** What about the pIC50 (SW620 cells (KRAS G12V)) of the same compound?
**A.** Its pIC50 is 8.22.

**Q.** And the pIC50 (KRAS G12D-BRAF complex)?
**A.** Its pIC50 is 6.73.
